This passage reports EC50 results from patent US11427556B2, “Urea derivatives as inhibitors of ASK1” (Hepagene Therapeutics (HK) Limited, priority 2017, dated 2022).

Bounds are passed on as bounds.

The first assay has as its target T1, Recombinant human ASK1 kinase (Homo sapiens, UniProt Q99683).
T1 construct: purchased Invitrogen Inc
T1 sequence (Q99683 1-1374): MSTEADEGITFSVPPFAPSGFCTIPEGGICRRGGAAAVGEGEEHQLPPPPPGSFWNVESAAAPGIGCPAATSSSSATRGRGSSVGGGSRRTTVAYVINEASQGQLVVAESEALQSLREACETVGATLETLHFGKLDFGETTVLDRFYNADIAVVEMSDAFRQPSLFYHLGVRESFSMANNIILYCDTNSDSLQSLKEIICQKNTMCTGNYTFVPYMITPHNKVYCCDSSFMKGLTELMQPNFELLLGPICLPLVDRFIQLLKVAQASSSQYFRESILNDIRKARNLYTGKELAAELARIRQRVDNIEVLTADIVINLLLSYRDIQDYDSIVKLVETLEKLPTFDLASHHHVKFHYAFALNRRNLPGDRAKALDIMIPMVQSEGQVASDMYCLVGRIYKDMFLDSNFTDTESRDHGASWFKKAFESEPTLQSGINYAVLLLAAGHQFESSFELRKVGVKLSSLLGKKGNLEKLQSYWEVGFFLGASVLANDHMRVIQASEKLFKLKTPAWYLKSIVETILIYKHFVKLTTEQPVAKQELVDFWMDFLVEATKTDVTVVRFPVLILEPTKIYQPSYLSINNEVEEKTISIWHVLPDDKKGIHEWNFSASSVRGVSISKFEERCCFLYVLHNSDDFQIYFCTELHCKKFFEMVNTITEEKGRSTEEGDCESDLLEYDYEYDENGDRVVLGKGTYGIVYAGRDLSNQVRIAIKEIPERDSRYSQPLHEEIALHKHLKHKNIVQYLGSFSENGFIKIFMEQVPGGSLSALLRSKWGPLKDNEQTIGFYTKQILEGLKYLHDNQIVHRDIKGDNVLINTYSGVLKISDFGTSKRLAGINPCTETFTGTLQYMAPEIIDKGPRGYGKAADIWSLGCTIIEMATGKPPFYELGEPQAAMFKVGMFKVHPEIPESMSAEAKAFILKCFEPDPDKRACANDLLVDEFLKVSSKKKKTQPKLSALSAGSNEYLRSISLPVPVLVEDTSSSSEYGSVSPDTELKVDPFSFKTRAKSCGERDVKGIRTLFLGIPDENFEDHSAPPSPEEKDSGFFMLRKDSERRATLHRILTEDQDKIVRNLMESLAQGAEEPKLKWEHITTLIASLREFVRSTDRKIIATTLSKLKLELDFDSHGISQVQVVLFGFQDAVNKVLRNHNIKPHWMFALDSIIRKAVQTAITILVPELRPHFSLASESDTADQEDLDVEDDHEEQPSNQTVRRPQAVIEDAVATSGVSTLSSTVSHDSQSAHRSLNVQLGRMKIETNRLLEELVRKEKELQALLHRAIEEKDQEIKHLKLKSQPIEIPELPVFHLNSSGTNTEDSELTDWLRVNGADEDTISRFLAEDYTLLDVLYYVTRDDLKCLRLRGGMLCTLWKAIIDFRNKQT
Kind of assay: ASK1 kinase HTRF assay (HTRF KinEASE-STK, phosphorylation of biotinylated peptide substrate). The class given is biochemical.
Details: not given
The protocol: Reagents: Recombinant human ASK1 kinase was from Invitrogen Inc. HTRF KinEASETM-STK S3 kit was obtained from Cisbio (Bedford, Mass.). All other reagents were of the highest grade commercially available.
Assay: The assay measures the phosphorylation level of a biotinylatd peptide substrate by the ASK1 kinase using HTRF detection. ASK1 kinase assay is based on HTRF KinEASETM-STK manual from Cisbio. Test compound, 1 uM STK-substrate-biotin, 3 nM of ASK1 kinase are incubated with 1*Kinase buffer with 5 mM MgCl2 and 1 mM DTT.
For orientation: TR-FRET usually uses a lanthanide donor and a delayed reading to cut background.
As to `CC(C)n1cnnc1-c1cccc(NC(=O)Nc2cc3ccccc3cn2)n1` [Compound I-057], the EC50 (usually the concentration at which the effect is half-maximal) was below 50 nM. `CC(C)n1cnnc1-c1cccc(NC(=O)Nc2nccc3ccccc23)n1` [Compound I-066]: the EC50 is below 50 nM. Take `CC(C)n1cnnc1-c1cccc(NC(=O)Nc2ccc3ccccc3n2)n1` [Compound I-067]: the EC50 is below 50 nM.

As for `C[C@H](CO)n1cnnc1-c1cccc(NC(=O)Nc2ccc3ccccc3n2)n1` [Compound I-069], the EC50 is below 50 nM.

The same assay, now with this note: 3 nM ASK1 kinase, 1 uM STK-substrate-biotin, HTRF detection; read-out: EC50.
Take `COc1ccc(NC(=O)Nc2cccc(-c3nncn3C(C)C)n2)nc1` [Compound I-051]: the EC50 was below 50 nM. With `COc1ccnc(NC(=O)Nc2cccc(-c3nncn3C(C)C)n2)c1` [Compound I-052], the EC50 is below 50 nM. Still for that read-out and setting: the value for `COc1ccnc(NC(=O)Nc2cccc(-c3nncn3[C@H](C)CO)n2)c1` [Compound I-053] was below 50 nM; that for `COc1ccnc(NC(=O)Nc2cccc(-c3nncn3[C@@H](C)CO)n2)c1` [Compound I-054] was 50 to 500 nM. The same measure, in the same setting: the value for `COc1cccnc1NC(=O)Nc1cccc(-c2nncn2C(C)C)n1` [Compound I-055] was below 50 nM; that for `Cc1cnc(NC(=O)Nc2cccc(-c3nncn3C(C)C)n2)cn1` [Compound I-056] was below 50 nM. Consider `C[C@H](CO)n1cnnc1-c1cccc(NC(=O)Nc2cc3ccccc3cn2)n1` [Compound I-058], for which the EC50 is below 50 nM.

With `C[C@@H](CO)n1cnnc1-c1cccc(NC(=O)Nc2cc3ccccc3cn2)n1` [Compound I-059], the EC50 was below 50 nM. Regarding `CC(=O)OC[C@@H](C)n1cnnc1-c1cccc(NC(=O)Nc2cc3ccccc3cn2)n1` [Compound I-061], the EC50 lay in the range of 50 to 500 nM. Regarding `CC(C)[C@H](N)C(=O)OC[C@@H](C)n1cnnc1-c1cccc(NC(=O)Nc2cc3ccccc3cn2)n1` [Compound I-062], the EC50 was below 50 nM.

For the compound `CC(C)n1cnnc1-c1cccc(NC(=O)Nc2cc3cc(N4CCNCC4)ccc3cn2)n1` [Compound I-065], the EC50 was in the range of 50 to 500 nM. Turning to `O=C(Nc1cccc(-c2nncn2C2CC2)n1)Nc1ccc2ccccc2n1` [Compound I-068], the EC50 is below 50 nM. Consider `CC(C)n1cnnc1-c1cccc(NC(=O)Nc2ncccc2OCc2ccccc2)n1` [Compound I-070], for which the EC50 was below 50 nM. Regarding `CC(C)n1cnnc1-c1cccc(NC(=O)Nc2ccc(OCc3ccccc3)cn2)n1` [Compound I-071], the EC50 is below 50 nM.

On to `CC(C)n1cnnc1-c1cccc(NC(=O)Nc2ncccc2O)n1` [Compound I-072], for which the EC50 is below 50 nM. `CC(C)n1cnnc1-c1cccc(NC(=O)Nc2cc(O)ccn2)n1` [Compound I-073]: the EC50 fell in the range of 50 to 500 nM. In the case of `CC(C)n1cnnc1-c1cccc(NC(=O)Nc2ccc(O)cn2)n1` [Compound I-074], the EC50 is below 50 nM.

In the case of `CC(C)n1cnnc1-c1cccc(NC(=O)Nc2ncccc2-c2ccccc2)n1` [Compound I-075], the EC50 fell in the range of 50 to 500 nM.

For `CC(C)n1cnnc1-c1cccc(NC(=O)Nc2ccc(-c3ccccc3)cn2)n1` [Compound I-076], the EC50 was below 50 nM.

As for `CC(C)n1cnnc1-c1cccc(NC(=O)Nc2cc(-c3ccccc3)ccn2)n1` [Compound I-077], the EC50 is below 50 nM. In the case of `C[C@H](CO)n1cnnc1-c1cccc(NC(=O)Nc2cc(-c3ccccc3)ccn2)n1` [Compound I-078], the EC50 is below 50 nM. The same measure, in the same setting: the value for `C[C@@H](CO)n1cnnc1-c1cccc(NC(=O)Nc2cc(-c3ccccc3)ccn2)n1` [Compound I-079] was below 50 nM; that for `CC(C)n1cnnc1-c1cccc(NC(=O)Nc2cc(-c3ccc(C4CC4)cc3)ccn2)n1` [Compound I-080] was below 50 nM. `CC(C)n1cnnc1-c1cccc(NC(=O)Nc2cc(-c3ccc(C4CC4)nc3)ccn2)n1` [Compound I-081]: the EC50 is below 50 nM. For the compound `CC(C)n1cnnc1-c1cccc(NC(=O)Nc2ncccc2-c2cccnc2)n1` [Compound I-082], the EC50 is below 50 nM. As for `CC(C)n1cnnc1-c1cccc(NC(=O)Nc2ncccc2-c2ccncc2)n1` [Compound I-083], the EC50 is 50 to 500 nM. Still for that read-out and setting: the result for `CC(C)n1cnnc1-c1cccc(NC(=O)Nc2cc(-c3ccccn3)ccn2)n1` [Compound I-084] reads below 50 nM; that for `C[C@H](CO)n1cnnc1-c1cccc(NC(=O)Nc2cc(-c3ccccn3)ccn2)n1` [Compound I-085], below 50 nM. `CC(C)n1cnnc1-c1cccc(NC(=O)Nc2cc(-c3cccnc3)ccn2)n1` [Compound I-086]: the EC50 was below 50 nM.

Take `CC(C)n1cnnc1-c1cccc(NC(=O)Nc2cc(-c3ccncc3)ccn2)n1` [Compound I-087]: the EC50 was below 50 nM. Consider `CC(C)n1cnnc1-c1cccc(NC(=O)Nc2ccc(-c3ccccn3)cn2)n1` [Compound I-088], for which the EC50 was below 50 nM.

Consider `CC(C)n1cnnc1-c1cccc(NC(=O)Nc2ccc(-c3cccnc3)cn2)n1` [Compound I-089], for which the EC50 was below 50 nM. Regarding `CC(C)n1cnnc1-c1cccc(NC(=O)Nc2ccc(-c3ccncc3)cn2)n1` [Compound I-090], the EC50 is below 50 nM. Regarding `CC(C)n1cnnc1-c1cccc(NC(=O)Nc2cc(C3CCOCC3)ccn2)n1` [Compound I-091], the EC50 is below 50 nM. For `C[C@H](CO)n1cnnc1-c1cccc(NC(=O)Nc2cc(C3CCOCC3)ccn2)n1` [Compound I-092], the EC50 was below 50 nM.

Turning to `CC(C)n1cnnc1-c1cccc(NC(=O)Nc2ccc(N3CCOCC3)cn2)n1` [Compound I-093], the EC50 was below 50 nM.

As for `CC(C)n1cnnc1-c1cccc(NC(=O)Nc2cc(N3CCOCC3)ccn2)n1` [Compound I-094], the EC50 is below 50 nM.

`CC(C)n1cnnc1-c1cccc(NC(=O)Nc2cc(N3CCNCC3)ccn2)n1` [Compound I-095, 1-(6-(4-Isopropyl-4H-1,2,4-triazol-3-yl)pyridin-2-yl)-3-(4-(piperazin-1-yl)pyridin-2-yl)urea]: the EC50 is below 50 nM. Same read-out and setting: the result for `C[C@H](CO)n1cnnc1-c1cccc(NC(=O)Nc2cc(N3CCNCC3)ccn2)n1` [Compound I-096] reads below 50 nM; that for `CC(C)n1cnnc1-c1cccc(NC(=O)Nc2ccc(N3CCNCC3)cn2)n1` [Compound I-097], below 50 nM.

As to `CC(C)N1CCN(c2ccnc(NC(=O)Nc3cccc(-c4nncn4C(C)C)n3)c2)CC1` [Compound I-098], the EC50 was below 50 nM. Same read-out and setting: the result for `CCN1CCN(c2ccnc(NC(=O)Nc3cccc(-c4nncn4C(C)C)n3)c2)CC1` [Compound I-099] reads below 50 nM; that for `CC(C)n1cnnc1-c1cccc(NC(=O)Nc2cc(N3CCN(C4CC4)CC3)ccn2)n1` [Compound I-100], below 50 nM. As for `CC(C)n1cnnc1-c1cccc(NC(=O)Nc2cc(N3CCN(CCO)CC3)ccn2)n1` [Compound I-101], the EC50 was below 50 nM. As for `CC(C)n1cnnc1-c1cccc(NC(=O)Nc2cc(N3CCN(S(C)(=O)=O)CC3)ccn2)n1` [Compound I-102], the EC50 is below 50 nM. As to `C[C@H](CO)n1cnnc1-c1cccc(NC(=O)Nc2cc(N3CCN(S(C)(=O)=O)CC3)ccn2)n1` [Compound I-103], the EC50 was below 50 nM. Consider `CC(=O)N1CCN(c2ccnc(NC(=O)Nc3cccc(-c4nncn4C(C)C)n3)c2)CC1` [Compound I-104], for which the EC50 was below 50 nM. On the same count and under the same terms, the result for `CC(C)n1cnnc1-c1cccc(NC(=O)Nc2cc(N3CCCCC3)ccn2)n1` [Compound I-105] reads below 50 nM.
